Data taken from patent US20050020542A1, “Method of modulating sodium ion absorption in epithelial cells” (priority 2001, published 2005).
“Also recorded” adds a separate entry of the source. Read-outs that look alike come from different tables or passages of the source.

Target: T1, epithelial sodium channel (ENaC) (Homo sapiens, UniProt P37088+P51168+P51170)
T1 construct: Nasal Polyps were surgically obtained from a CF patient; endogenous in cells; host or cells: primary cystic fibrosis human nasal epithelial (CFHNE) cells from nasal polyps of a CF patient, grown at air-liquid interface
T1 sequence (P37088 1-669): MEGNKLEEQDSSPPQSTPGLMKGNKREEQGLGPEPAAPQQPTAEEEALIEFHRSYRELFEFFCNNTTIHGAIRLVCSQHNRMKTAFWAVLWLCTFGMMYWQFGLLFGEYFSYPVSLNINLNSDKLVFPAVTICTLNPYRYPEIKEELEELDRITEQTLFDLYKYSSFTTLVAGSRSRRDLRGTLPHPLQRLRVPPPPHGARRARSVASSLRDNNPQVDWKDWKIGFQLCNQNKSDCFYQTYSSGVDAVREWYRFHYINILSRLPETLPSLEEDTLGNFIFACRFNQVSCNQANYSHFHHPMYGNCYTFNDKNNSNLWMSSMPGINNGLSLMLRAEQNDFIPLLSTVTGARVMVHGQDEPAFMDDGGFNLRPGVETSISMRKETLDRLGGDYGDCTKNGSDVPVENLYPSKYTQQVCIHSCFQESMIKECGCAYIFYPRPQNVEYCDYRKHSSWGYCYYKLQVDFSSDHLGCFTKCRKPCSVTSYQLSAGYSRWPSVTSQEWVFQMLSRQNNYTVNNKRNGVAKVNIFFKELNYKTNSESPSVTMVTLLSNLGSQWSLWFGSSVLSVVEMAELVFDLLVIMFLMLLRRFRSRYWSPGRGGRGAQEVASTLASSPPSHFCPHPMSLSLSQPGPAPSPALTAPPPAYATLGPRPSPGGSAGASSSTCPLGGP
T1 sequence (P51168 1-640): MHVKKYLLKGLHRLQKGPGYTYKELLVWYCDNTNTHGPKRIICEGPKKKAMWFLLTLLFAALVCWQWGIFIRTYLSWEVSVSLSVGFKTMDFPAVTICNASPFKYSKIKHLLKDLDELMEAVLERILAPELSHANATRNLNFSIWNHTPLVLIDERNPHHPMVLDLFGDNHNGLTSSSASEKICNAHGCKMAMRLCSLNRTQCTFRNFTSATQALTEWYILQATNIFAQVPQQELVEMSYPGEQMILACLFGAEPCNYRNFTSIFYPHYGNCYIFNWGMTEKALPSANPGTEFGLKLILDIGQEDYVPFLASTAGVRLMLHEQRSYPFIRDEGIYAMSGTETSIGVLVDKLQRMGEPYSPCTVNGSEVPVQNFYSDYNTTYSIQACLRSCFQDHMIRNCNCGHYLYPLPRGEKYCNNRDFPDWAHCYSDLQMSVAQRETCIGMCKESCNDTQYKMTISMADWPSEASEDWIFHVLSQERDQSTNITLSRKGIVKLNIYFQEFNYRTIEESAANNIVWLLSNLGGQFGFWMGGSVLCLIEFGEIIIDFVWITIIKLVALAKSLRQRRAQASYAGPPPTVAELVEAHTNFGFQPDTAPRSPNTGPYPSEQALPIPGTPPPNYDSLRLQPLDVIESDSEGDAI
T1 sequence (P51170 1-649): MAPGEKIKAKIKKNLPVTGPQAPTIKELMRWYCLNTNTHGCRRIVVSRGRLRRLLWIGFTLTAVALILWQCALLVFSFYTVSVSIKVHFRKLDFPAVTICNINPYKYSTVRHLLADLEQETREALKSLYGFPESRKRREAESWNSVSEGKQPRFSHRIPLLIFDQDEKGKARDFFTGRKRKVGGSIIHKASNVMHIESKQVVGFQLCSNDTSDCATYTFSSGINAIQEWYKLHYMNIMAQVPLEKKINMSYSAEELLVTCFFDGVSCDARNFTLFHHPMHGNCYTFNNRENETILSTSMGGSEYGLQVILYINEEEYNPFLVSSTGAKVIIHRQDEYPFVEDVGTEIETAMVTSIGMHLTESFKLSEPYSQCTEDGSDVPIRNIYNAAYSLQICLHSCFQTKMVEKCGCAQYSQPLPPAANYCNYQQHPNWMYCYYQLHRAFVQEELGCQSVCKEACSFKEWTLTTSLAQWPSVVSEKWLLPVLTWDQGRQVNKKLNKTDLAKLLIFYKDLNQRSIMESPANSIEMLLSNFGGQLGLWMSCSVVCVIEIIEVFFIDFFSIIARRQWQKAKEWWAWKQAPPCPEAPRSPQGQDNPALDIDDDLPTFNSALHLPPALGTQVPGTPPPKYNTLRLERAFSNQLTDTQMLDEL
Experiment: Cystic fibrosis human nasal epithelial (CFHNE) cell Ussing chamber assay, short-circuit current (Isc)
Assay type: cell-based
Experimental: Sodium uptake inhibiting and enhancing inositol polyphosphate compounds are determined by the cystic fibrosis human nasal epithelial (CFHNE) cell assay, as described in detail in Examples 1 and 2, i.e., by mounting monolayers of human CF nasal epithelial cells in Ussing chambers, and then monitoring short-circuit current (Isc) and resistance after contact with a test inositol polyphosphate compound.
Elevated basal Isc measured in monolayer cultures in Ussing Chambers is a prominent characteristic of cultures of CF human nasal airway epithelia that distinguishes it from normal tissue. Although basal Isc is largely driven by sodium channel activity (ENaC) it has been closely associated with both CFTR and Ca^2+ activated Cl^− channels. (Devor and Pilewski, 1999; Inglis et al., 1999; Mall et al., 1999; Ramminger et al., 1999; Wang and Chan, 2000).
CF Human Nasal Epithelial (CFHNE) Cell Isolation and Proliferation: Nasal Polyps were surgically obtained from a CF patient at Children's Hospital (Seattle, Wash.), transported, on ice in a sterile container containing a 1:1 mixture of Dulbecco's modification of minimum essential medium Eagle and Ham's F-12 nutrient medium (DMEM/F-12)(Irvine Scientific, Santa Ana, Calif.) supplemented with 100 U/ml penicillin, 0.1 mg/ml streptomycin, 10 mM HEPES, and 2 mM L-glutamine. The tissue samples were aseptically removed from the transport medium and washed (repeated 5×) by suspending in 40 ml of Joklik's modification of minimum essential medium Eagle (JMEM) at 4° C., and centrifuging at 500 RPM. The supernatant was aspirated and discarded. The tissue was then transferred to JMEM containing 200 U/ml penicillin, 0.2 mg/ml streptomycin, 0.1 mg/ml gentamycin sulfate (Clonetics, San Diego, Calif.), and 0.1 μg/ml amphotericin-B (Clonetics), and 0.1% Protease (Sigma), washed an additional 2×, suspended in 15 ml in a 10 cm tissue culture dish, and incubated at 4° C. for 24 hours. The tissue samples were then gently triturated, the connective tissue aseptically removed, and the remaining cell suspension centrifuged at 1000 RPM for 5 min. The supernatant was aspirated and the pellet was resuspended in 10 ml JMEM with 0.025% trypsin-EDTA and allowed to incubate for 5 min. After 5 min., 10% Fetal Bovine Serum (FBS) was added to deactivate the trypsin, and the cell suspension was centrifuged at 1000 RPM. The supernatant was aspirated and the cell pellet was resuspended in a proliferation media consisting of Keratinocyte-Serurm Free Medium (KSFM)(Gibco-BRL, Grand Island, N.Y.) containing 5 ng/ml EGF (Gibco), 50 μg/ml BPE (Gibco), 100 U/ml penicillin, 0.1 mg/ml streptomycin, and 2 mM L-glutamine. The cell suspension was transferred to 2, 10 cm tissue culture dishes coated with 1 μg/cm^2 Vitrogen (Becton-Dickinson, Bedford, Mass.), incubated at 37° C. in a humidified atmosphere of 5% CO2 and 95% air. The cells were allowed to grow for 6 days (70-80% confluence) with the media being replaced with fresh media every other day. The cells were then trypsinized using 0.025% trypsin-EDTA for 5 min. The cell suspension was collected, the trypsin deactivated with 10% FBS, and centrifuged at 1000 rpm for 5 min. The cells were then counted using a hemocytometer. There was a typical yield of 3×10^6 cells per dish. The supernatant was aspirated and the cells were resuspended in KSFM and plated on 1 μg/cm^2 Vitrogen at a density of 5×10^3 cells/cm^2.
CFHNE Cell Ussing Chamber Preparation: The CFHNE cells were prepared for Ussing Chamber studies using Snapwell permeable supports (0.4 μm pore size) (Corning Costar, Cambridge, Mass.) coated with 1 μg/cm^2 Vitrogen. Cells were plated at 10^5 cells/cm^2 in KSFM. […]

**Q.** For `CCCCCCCCOC1C(OC(=O)CCC)C(OP(=O)(OCOC(=O)CC)OCOC(=O)CC)C(OP(=O)(OCOC(=O)CC)OCOC(=O)CC)C(OP(=O)(OCOC(=O)CC)OCOC(=O)CC)C1OP(=O)(OCOC(=O)CC)OCOC(=O)CC` (stereo not drawn) [INO-E2, 2-O-butyryl-1-O-octyl-myo-inositol 3,4,5,6-tetrakisphosphate octakis (propionoxymethyl) ester], which “acute effect on Isc” value (2.5 μM, acute) is on record?
**A.** Its value is “acute inhibitory effect on Isc”.

**Q.** And the “persistence of acute Isc effect after 24 hrs” value (2.5 μM, single addition, after 24 hrs)?
**A.** Its value is “dissipated”.

**Q.** And the “inhibition of Isc 48 hours after exposure (reversibility)” value (5 μM for 2 hours, tested 48 hours later)?
**A.** Its value is “negligible inhibition of Isc”.

**Q.** And the “effect of repeated exposure on basal Isc” value (1-2.5 μM repeatedly over 96 hours (every 24 hrs for 4 days), FIG. 3)?
**A.** The value was “corrective changes in basal Isc; also recorded: cumulative beneficial effect; also recorded: reverses the pathologically elevated basal Isc”.

**Q.** What about the “decrease in potency after 24 hr preincubation versus acute addition” value (24 hr preincubation EC50 vs acute EC50) of the same molecule?
**A.** Its value is 50-80%.

**Q.** What about the “inhibition of spontaneous Isc in Cl- free buffer” value (Cl- free buffer, FIG. 1A) of the same molecule?
**A.** Its value is “not reduced”.

**Q.** What about the EC50 (acute addition, data not shown, read-out: EC50 on Isc following acute addition of compound) of the same molecule?
**A.** The EC50 was 1 to 2 µM.

**Q.** What about the “acute effect on spontaneous amiloride-inhibitable Isc” value (acute addition, reduced chloride and chloride free buffers, FIG. 1A) of the same molecule?
**A.** The value was “inhibits spontaneous amiloride-inhibitable Isc in a dose-dependent fashion”.

**Q.** And the EC50 (applied apically 2 hrs, washed, tested 24 hrs later, CFHNE monolayers, read-out: EC50 of prolonged effect on basal amiloride-inhibitable Isc)?
**A.** The EC50 was 5 to 10 µM.
